Activity calls are given as the source filed them.
What was measured:
[1] = molecular target: T1, Dual specificity protein phosphatase 6 (Rattus norvegicus, UniProt Q64346)
T1 sequence (Q64346 whole entry): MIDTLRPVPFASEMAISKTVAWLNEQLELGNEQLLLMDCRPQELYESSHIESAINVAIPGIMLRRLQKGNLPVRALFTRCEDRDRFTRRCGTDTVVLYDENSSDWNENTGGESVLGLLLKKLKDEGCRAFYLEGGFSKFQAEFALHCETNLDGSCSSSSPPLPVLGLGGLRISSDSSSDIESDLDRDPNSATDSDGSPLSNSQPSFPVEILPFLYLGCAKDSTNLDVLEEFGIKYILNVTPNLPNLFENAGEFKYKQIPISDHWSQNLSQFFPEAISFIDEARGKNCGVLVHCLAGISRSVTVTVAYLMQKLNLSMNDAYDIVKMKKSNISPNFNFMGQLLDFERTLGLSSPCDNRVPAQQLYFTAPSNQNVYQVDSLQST

[2] = molecular target: Glyceraldehyde-3-phosphate dehydrogenase (Homo sapiens, UniProt P04406)
[3] = molecular target: T2, Tyrosine-protein phosphatase non-receptor type 7 (Homo sapiens, UniProt P35236); assay type: functional
T2 sequence (P35236 whole entry): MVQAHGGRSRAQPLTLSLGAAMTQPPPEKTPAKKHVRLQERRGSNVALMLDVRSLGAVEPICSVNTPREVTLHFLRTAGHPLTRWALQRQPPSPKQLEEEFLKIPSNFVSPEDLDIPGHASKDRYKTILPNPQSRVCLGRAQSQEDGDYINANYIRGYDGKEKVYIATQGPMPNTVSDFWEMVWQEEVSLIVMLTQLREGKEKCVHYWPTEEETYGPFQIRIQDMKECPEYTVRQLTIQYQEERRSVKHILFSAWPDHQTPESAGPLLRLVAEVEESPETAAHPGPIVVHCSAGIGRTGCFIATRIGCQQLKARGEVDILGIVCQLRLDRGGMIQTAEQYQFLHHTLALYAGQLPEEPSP

[4] = molecular target: T1, Dual specificity protein phosphatase 6; assay type: functional
[5] = HEp-2 cell cytotoxicity, dose response, cytotoxicity control for RSV inhibitor project, HTS (AID 2410); assay type: functional; conditions: human respiratory syncytial virus
[6] = molecular target: T3, Eukaryotic translation initiation factor 2-alpha kinase 3 (Homo sapiens, UniProt Q9NZJ5); assay: Dose response cell-based high-throughput screening assay to measure PERK inhibition. [Related pubchem assays: 1416 ]; assay type: functional
T3 sequence (Q9NZJ5 whole entry): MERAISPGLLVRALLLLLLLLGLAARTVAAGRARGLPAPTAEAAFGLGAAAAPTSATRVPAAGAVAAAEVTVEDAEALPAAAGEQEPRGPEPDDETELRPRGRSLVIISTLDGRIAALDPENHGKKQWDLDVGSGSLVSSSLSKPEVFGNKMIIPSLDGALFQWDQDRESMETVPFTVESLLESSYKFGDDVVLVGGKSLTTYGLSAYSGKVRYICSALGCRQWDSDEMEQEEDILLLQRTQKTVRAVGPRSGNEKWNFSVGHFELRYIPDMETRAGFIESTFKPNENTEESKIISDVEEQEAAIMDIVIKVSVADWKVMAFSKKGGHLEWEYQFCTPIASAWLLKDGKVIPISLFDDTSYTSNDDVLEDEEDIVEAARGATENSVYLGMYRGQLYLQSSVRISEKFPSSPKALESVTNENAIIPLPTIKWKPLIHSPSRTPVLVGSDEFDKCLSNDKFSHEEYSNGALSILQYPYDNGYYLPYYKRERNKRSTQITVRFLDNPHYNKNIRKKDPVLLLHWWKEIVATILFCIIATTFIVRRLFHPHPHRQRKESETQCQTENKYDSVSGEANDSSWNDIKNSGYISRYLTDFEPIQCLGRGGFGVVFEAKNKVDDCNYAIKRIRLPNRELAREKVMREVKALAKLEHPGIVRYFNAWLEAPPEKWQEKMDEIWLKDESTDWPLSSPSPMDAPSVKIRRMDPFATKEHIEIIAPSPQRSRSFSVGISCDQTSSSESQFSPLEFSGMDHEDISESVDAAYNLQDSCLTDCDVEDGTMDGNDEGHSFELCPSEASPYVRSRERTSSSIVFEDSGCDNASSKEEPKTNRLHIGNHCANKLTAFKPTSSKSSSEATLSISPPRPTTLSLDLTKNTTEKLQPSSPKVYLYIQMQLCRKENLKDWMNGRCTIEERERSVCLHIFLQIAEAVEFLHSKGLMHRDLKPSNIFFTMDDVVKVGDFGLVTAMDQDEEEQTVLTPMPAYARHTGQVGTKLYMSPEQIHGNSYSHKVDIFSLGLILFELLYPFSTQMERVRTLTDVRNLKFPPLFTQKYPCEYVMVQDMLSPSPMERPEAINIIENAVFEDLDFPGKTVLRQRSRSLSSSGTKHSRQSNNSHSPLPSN

[7] = molecular target: T3, Eukaryotic translation initiation factor 2-alpha kinase 3; assay: Counterscreen assay for PERK inhibitors: Dose response cell-based high throughput screening assay to measure inhibition of PERK at 6 hours. [Related pubchem assays: 1522, 1416 ]; assay type: functional
[8] = molecular target: Acyl-homoserine lactone acylase PvdQ (Pseudomonas aeruginosa (strain LESB58), UniProt Q9I194); assay: P. aeruginosa PvdQ acylase inhibitors, dose response, biochemical, fluorescence, plate reader and imaging, cherry-picks (AID 493231)
[9] = molecular target: Peroxisome proliferator-activated receptor gamma/Nuclear receptor coactivator 3 (Homo sapiens, UniProt P37231); assay type: functional;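 further: agonist potency for raising coactivator recruitment to the receptor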
[10] = molecular target: Peroxisome proliferator-activated receptor gamma/Nuclear receptor coactivator 1 (Homo sapiens, UniProt P37231); assay type: functional;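 further: agonist potency as compounds enhance coactivator SRC-1 recruitment to PPARgamma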
[11] = molecular target: Peroxisome proliferator-activated receptor gamma/Nuclear receptor coactivator 2 (Homo sapiens, UniProt P37231); assay type: functional;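 further: agonist potency for raising coactivator recruitment to the receptor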
[12] = molecular target: T4, Neuropeptide Y receptor type 1 (Homo sapiens, UniProt P25929); assay type: functional;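 further: HEK293 cells with a CNG channel challenged with NPY then isoproterenol; potency as antagonist that reverses NPY suppression of cAMP signal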
T4 sequence (P25929 whole entry): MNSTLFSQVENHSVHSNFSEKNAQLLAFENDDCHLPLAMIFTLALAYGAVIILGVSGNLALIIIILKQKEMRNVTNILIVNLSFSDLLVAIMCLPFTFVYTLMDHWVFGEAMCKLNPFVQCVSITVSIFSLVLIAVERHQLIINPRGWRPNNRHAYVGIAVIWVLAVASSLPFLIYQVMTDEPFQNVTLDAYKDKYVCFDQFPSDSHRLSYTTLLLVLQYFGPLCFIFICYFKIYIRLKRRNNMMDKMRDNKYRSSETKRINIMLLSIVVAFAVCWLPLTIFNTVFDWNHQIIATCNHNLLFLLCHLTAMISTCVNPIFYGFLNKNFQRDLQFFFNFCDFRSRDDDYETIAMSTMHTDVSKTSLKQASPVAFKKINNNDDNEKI

[13] = molecular target: T5, Neuropeptide Y receptor type 2 (Homo sapiens, UniProt P49146); assay type: functional, cell-based;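 further: HEK293 cells expressing the receptor and a CNG channel; stimulus was NPY near EC95 followed by isoproterenol to raise cAMP; antagonist potency measured as restoring cAMP signal that NPY suppresses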
T5 sequence (P49146 whole entry): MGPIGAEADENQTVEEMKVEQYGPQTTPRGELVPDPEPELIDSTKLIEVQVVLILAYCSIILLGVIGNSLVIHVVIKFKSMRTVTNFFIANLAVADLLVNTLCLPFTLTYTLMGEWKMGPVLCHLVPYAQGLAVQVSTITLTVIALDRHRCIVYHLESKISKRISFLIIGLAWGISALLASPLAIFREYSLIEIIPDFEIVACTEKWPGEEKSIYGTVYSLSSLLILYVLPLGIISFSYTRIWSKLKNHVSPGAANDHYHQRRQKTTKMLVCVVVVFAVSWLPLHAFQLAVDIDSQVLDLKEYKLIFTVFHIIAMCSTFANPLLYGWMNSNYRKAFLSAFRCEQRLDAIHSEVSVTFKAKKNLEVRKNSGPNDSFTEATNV

Genome polyprotein = Genome polyprotein (dengue virus type 2, UniProt P29990); assay: Dengue-2 NS5 methyltransferase inhibitors, primary screen, biochemical, confirmation dose response (AID 588689); assay type: functional
Vero = Vero cell cytotoxicity, cytotoxicity control for flavivirus capping enzyme inhibitors (AID 588742); assay type: functional; conditions: Chlorocebus sabaeus
NS3 = NS3 (Hepatitis C virus, UniProt A3EZJ3); assay: PubChem AID 2173; set-up: species or system Hepacivirus hominis
[14] = molecular target: Luciferin 4-monooxygenase (Photinus pyralis, UniProt P08659); assay: firefly luciferase enzyme inhibitors, dose response, biochemical, luminescence (AID 1891)
[15] = Luminescence Cell-Based Dose Confirmation HTS to Identify Inhibitors of Platelet Dense Granule Release. [Related pubchem assays: 1663 (Primary HTS), 1678 (Summary of Project)]; assay type: functional
[16] = HIV-1 Env-mediated cell fusion inhibitors, dose response, CCR5-tropic Env (AID 2279); assay type: functional
[17] = Luminescence Cell-Based Dose Confirmation HTS to Identify Activators of 5'UTR Stem-Loop Driven Alpha-Synuclein mRNA Translation in H4 Neuroglioblastoma Cells. [Related pubchem assays: 1829 (Project Summary), 1814 (Primary HTS)]; assay type: functional
H4 = assay: Luminescence Cell-Based Dose Response HTS to Identify Activators of 5'UTR Stem-Loop Driven Prion Protein mRNA Translation in H4 Neuroglioblastoma Cells. [Related pubchem assays: 1829 (Project Summary), 1814 (Primary HTS)]; assay type: functional; conditions: Homo sapiens
Streptokinase A = molecular target: T6, Streptokinase A (Streptococcus pyogenes serotype M1, UniProt P10520); assay: S. pyogenes streptokinase expression inhibitors, potency, dose response, plasminogen activation absorbance, OD405 (AID 1914); assay type: functional, Streptococcus pyogenes M1 GAS;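 further: secreted streptokinase activity via plasminogen activation per viability signal from cell pellet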
T6 sequence (P10520 whole entry): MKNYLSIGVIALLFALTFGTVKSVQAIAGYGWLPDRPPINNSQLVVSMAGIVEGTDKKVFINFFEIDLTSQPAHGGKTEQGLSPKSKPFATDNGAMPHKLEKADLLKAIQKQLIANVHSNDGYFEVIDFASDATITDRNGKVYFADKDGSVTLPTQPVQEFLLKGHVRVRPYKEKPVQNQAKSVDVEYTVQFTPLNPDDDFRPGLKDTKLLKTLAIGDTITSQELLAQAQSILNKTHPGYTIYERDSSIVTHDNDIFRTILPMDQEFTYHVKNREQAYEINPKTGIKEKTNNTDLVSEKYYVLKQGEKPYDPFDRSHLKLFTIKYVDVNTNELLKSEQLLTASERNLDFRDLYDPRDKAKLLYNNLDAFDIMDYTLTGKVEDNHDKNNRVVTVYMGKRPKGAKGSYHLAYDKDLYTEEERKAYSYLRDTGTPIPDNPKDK

[18] = Luminescence Cell-Based Dose Retest to Confirm Inhibitors of Cancer Stem Cells. [Related pubchem assays (depositor defined):AID2717, AID2721]; assay type: functional; conditions: Homo sapiens
Streptococcus = assay: Group A Streptococcus viability loss, dose response, counter-screen for streptokinase expression inhibitor project, luminescence, BacTiterGlo (AID 1915); assay type: functional, organism-based;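 further: potency for reduction of bacterial viability or growth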
[19] = system: Streptococcus sp. 'group A'; assay: growth inhibition of control SK(-) GAS strain, dose response, counter-screen for streptokinase expression inhibitor project, luminescence, kanamycin, BacTiterGlo, confirmation (AID 1900); assay type: functional, organism-based

SMILES: CC(C)CNc1nc(=O)n(-c2ccc(F)cc2)c(=O)[nH]1
- IC50 [1]: > 100 µM (inactive)
- IC50 [2]: > 100 µM (not active)
- IC50 [3]: > 100 µM (not active)
- IC50 [4]: > 100 µM (inactive)

SMILES: Cc1ccc2cc(CN(CC3CCCO3)C(S)=NCc3ccco3)c(O)nc2c1C (configuration not stated)
- CC50 [5]: 24.3 µM (active)
- IC50 (cells): 24.6 µM (active)

SMILES: Cc1cc2ccccn2c1C(=O)C(=O)O
- IC50 [1]: > 100 µM (inactive)
- IC50 [2]: > 100 µM (not active)
- IC50 [3]: > 100 µM (not active)
- IC50 [4]: > 100 µM (inactive)

SMILES: CCc1cccc(C)c1NC(=O)Nc1ccc2c(c1)OCO2
- EC50 [6]: > 55.7 µM (not active)
- EC50 [7]: > 55.7 µM (not active)

SMILES: CN1CCOCCOCCN(C)C(=O)N2CCOCCOCCN(CCOCC2)C1=O
- EC50 [6]: > 55.7 µM (not active)
- EC50 [7]: > 55.7 µM (not active)

SMILES: Cc1ccc2c(c1)C1C3CCC(C3)C1[S+]([O-])N2 (configuration not stated)
- AC50 [8]: 25.6 µM (active)

SMILES: O=C(CSc1ccc2nnc(-c3ccc(Cl)cc3)n2n1)N1CCCc2ccccc21
- EC50 [9]: 52.3 µM (not active)
- EC50 [10]: 50.1 µM (not active)
- EC50 [11]: 27.4 µM (not active)

SMILES: CCOC(=O)c1ccc(N2C(=O)C(C)=C(C)C2=O)cc1
- AC50 [8]: 25 µM (active)

SMILES: O=C(/C=C/c1ccc(OCc2c(F)cccc2Cl)cc1)N1CCOCC1
- CC50 [5]: 15.9 µM (active)
- IC50 (cells): 10.4 µM (active)

SMILES: CCOc1ccc(NC(=S)N2CCC(C(O)(c3ccccc3)c3ccccc3)CC2)cc1
- IC50 [12]: > 35 µM (not active)
- IC50 [13]: 0.22 µM (active)

SMILES: Cc1cc(N2C(=O)C(O)=C(C(=O)c3ccc(C)o3)C2c2cccc(Oc3ccccc3)c2)no1 (configuration not stated)
- IC50 (Genome polyprotein): 32 µM (active)
- CC50 (Vero): > 40 µM (active)
- IC50 (NS3): 1.95 µM (active)

SMILES: CCOC(=O)c1ccc(NC(=O)CCc2nc(-c3ccc(C)cc3)no2)cc1
- EC50 [9]: > 79.4 µM (not active)
- EC50 [10]: > 79.4 µM (not active)
- EC50 [11]: > 79.4 µM (not active)

SMILES: CCOC(=O)c1sc(N2C(=O)C(O)=C(C(=O)c3ccc(C)o3)C2c2cccc([N+](=O)[O-])c2)nc1C (configuration not stated)
- EC50 [14]: > 112 µM (not active)
- EC50 [15]: 18.5 µM (active)
- IC50 [16]: 41.1 µM (active)

SMILES: COc1ccc(C(=O)C2=C(O)C(=O)N(c3ccccn3)C2c2ccc(C(C)C)cc2)cc1 (configuration not stated)
- EC50 [17]: 22.4 µM (active)
- IC50 (NS3): 6.24 µM (active)
- EC50 (H4): 17 µM (active)

SMILES: CC(C)COC(=O)c1cccc2c1-c1ccccc1/C2=N\O
- IC50 [12]: 6.46 µM (active)
- CC50 [5]: > 50 µM (active)
- EC50 (Streptokinase A): > 50 µM (not active)
- AC50 [18]: 5.69 µM (active)
- EC50 (Streptococcus): > 150 µM (not active)
- EC50 [19]: 4.74 µM (active)
- IC50 [13]: 4.96 µM (active)
